Read-outs that look alike come from different tables or passages of the source.
Columns and labels:
[1] = test system: 4′-fluoro-6-[(alpha,alpha,alpha,-trifluoro-m-toly)oxy]-picolinamide resistant mutants; assay: Cross-resistance test of resistant mutants against other PDS inhibitors; format: cell-based, Synechocystis
[2] = test system: wild type Synechocystis PCC6803; assay: Paper disc assay on BG-11 agar, wild type Synechocystis; format: cell-based
Excerpt: (§1) Alternatively screens can be performed on agar plates with “lawns” of cyanobacteria and paper discs impregnated with test compounds. In this case, zones of inhibited growth around paper discs can be detected after two or three days.
(§2) To set up the assay, wild type cells of Synechocystis were mixed with equal volumes of 2× top agar and 2× BG-11 and overlaid on top of BG-11 agar plate. Cells normally appear in 3-5 days after plating. This method will yield an even and uniform lawn of cells. Upon solidifying, test compounds are then spotted on Whatman filter paper disc before being placed on agar plates. Four compounds can be tested on a single plate. Using this screening, in an example employing 160 different compounds, predominantly compounds of novel mode of action, have been tested on this microbe, and on average, 25% of the compounds show at least some activity.
Susceptibility of Synechocystis to 4′-fluoro-6-[(alpha,alpha,alpha,-trifluoro-m-toly)oxy]-picolinamide was tested using a paper disc assay in which 4′-fluoro-6-[(alpha,alpha,alpha,-trifluoro-m-toly)oxy]-picolinamide was spotted in a paper disc before being placed on a lawn of cells. In determining susceptibility, the size of the zone of inhibition is indicative of the potency of the compound.
(§3) A rapid plate based assay for screening and identifying active compounds is then performed. Wild type cells of Synechocystis are mixed with equal volumes of 2× top agar and 2× BG-11. The mixture is then overlaid on top of a BG-11 agar plate. Cells normally appear 3-5 days after plating. This method will yield an even and uniform lawn of cells.
(§4) After solidification of the agar, test compounds were spotted on Whatman filter paper disc, and then were placed on agar plates. Four different compounds were tested on a single plate. Using this screening method, 160 different compounds were tested, predominantly compounds of novel mode of action. On average, 25% of the compounds show at least some activity.
The resistant phenotype of selected mutant cell lines was further tested in solid medium as well as in suspension cultures. […]

[3] = test system: Synechocystis EMS resistant mutant cell lines; assay: Dose-response in suspension culture, resistant mutant cell lines; format: cell-based, Synechocystis PCC6803; details: seven days, read-out: I50
Procedure: (§5) These experiments also established a dose-response curve. A lethal concentration for resistant mutant selection was 1-2 μM of 4′-fluoro-6-[(alpha,alpha,alpha,-trifluoro-m-toly)oxy]-picolinamide. Dose-response studies were also performed in 96-sell microtiter plates on wild type and putative 4′-fluoro-6-[(alpha,alpha,alpha,-trifluoro-m-toly)oxy]-picolinamide resistant mutants of Synechocystis. The growth of the culture was measured daily at an optical density of 690 nm.
(§6) For wild type cells (WT), the growth was inhibited at concentrations of 4′-fluoro-6-[(alpha,alpha,alpha,-trifluoro-m-toly)oxy]-picolinamide of <0.25 μM, with an I50 in the sub μM range. By contrast, the I50 values are between 1-2 μM for 5-1/12E, and in the range of 5-10 μM for 7-3/12F and 7-4/12F, respectively.
(§7) Wild type cells were inhibited at concentrations of <0.25 uM 4′-fluoro-6-[(alpha,alpha,alpha,-trifluoro-m-toly)oxy]-picolinamide, with an I50 in the sub μM range. In contrast I50 values are between 1-2 μM for 5-1/12E and 5-1/12F, and between 5-10 μM for 7-3/12F and […]. Thus, because the cell lines with the mutant pds genes are far more resistant than wild type cell lines, there is evidence that the selected cultures contain 4′-fluoro-6-[(alpha,alpha,alpha,-trifluoro-m-toly)oxy]-picolinamide resistance.

wild type Synechocystis = assay: Dose-response in liquid/suspension culture, wild type Synechocystis; format: cell-based, Synechocystis PCC6803
Procedure: (§8) To identity a target site gene activity, two types of Bluegreen algae, Synechocystis PCC 6803 (American Type Culture Collection, Rockville, Md.) and Anabaena PCC 7120 (American Type Culture Collection, Rockville, Md.) can be used for the screen. One is grown in microtiter dishes in BG-11 medium supplemented with various concentrations of the test compounds. Inhibition of growth can be monitored by visual inspection after two to three days of culture. Quantitative growth measurements can be taken photometrically starting one day after inoculation.
as §5, §6, §7

Synechocystis PCC 6803 = assay: Susceptibility of Synechocystis PCC 6803 to known herbicides (Table 2); format: cell-based
Procedure: as §8, §1, §2
A rapid plate based assay for screening lead compounds was developed as follows. First, either one of two types of bluegreen algae, Synechocystis PCC6803 and Anabaen PC 7120 were grown in microtitre dishes containing BG-11 supplemented with various concentrations of 160 different test compounds. Alternatively, screens can be performed on agar plates with lawns of cyanobacteria and paper discs impregnated with test compounds.
as §3, §4
Cyanobacteria are a particularly useful source of genes for enhancing crop performance due to their similarity, and ancestral connection, to plant chloroplasts. In particular, cyanobacterial genes may be useful for transformation directly into the chloroplast genome due to similarities in genetic elements. Similarities in cyanobacterial genes and proteins to those from chloroplasts can carry over to a shared susceptibility to herbicides.

Synechocystis PCC6803 = assay: In vivo growth in BG-11 media with commercial herbicides; format: cell-based; details: 100 nM, one week of culture in BG-11 media
Procedure: (§9) In vivo resistance of cyanobacteria to PURSUIT® imazethapyr and OUST® sulfometuron methyl. As a preliminary matter, Synechocystis PCC6803 and Anabaenia PCC7120 were tested for susceptibility to PURSUIT® imazethapyr and OUST® sulfometuron methyl. AHAS genes which are resistant to these herbicides are excellent candidates for transformation in plant plastomes and nuclear genomes. Such transformants can be used in a weed control strategy using a combination of transgenic herbicide resistant crops and herbicides.
(§10) In vivo testing of Synechocystis PCC6803 and Anabaena PCC7120 was done by culturing the organisms in varying concentrations of the commercial herbicides. […] For relative comparison purposes a concentration of 1 μM PURSUIT® imazethapyr in agar media is lethal to Arabidopsis plants.

Anabaena PCC7120 = assay: as above; format: cell-based; details: 100 nM, one week of culture in BG-11 media
Procedure: as §9, §10

Anabaena AHAS = assay: In vitro AHAS assay; format: biochemical, Anabaena PCC7120; details: 100 nM
Procedure: (§11) AHAS is the target site of both PURSUIT® imazethapyr and OUST® sulfometuron methyl herbicides. To determine if resistance to the herbicides is due to a natural resistance to inhibition of the acetohydroxyacid synthase enzymes from the cyanobacteria, or if it is due to alternative mechanisms (e.g. lack of entry into the cell), the in vitro activity of the AHAS enzyme in the presence of the herbicides was tested.
(§12) AHAS assays were performed with slight modification as described by Singh et. al (Singh B K, Stidham M A, Shaner D L, 1988, Assay for acetohydroxyacid synthase from plants. Anal Biochem 171: 173-179).
(§13) Synechocystis PCC6803 and Anabaena PCC7120 were cultured in 1.5 L of BG-11 media. Cells were collected by centrifuge and stored frozen at −80° C. Frozen cells were thawed and placed in a 30 mL Bead Beater cell disruptor chamber (BioSpec Corp Bartlesville, Okla.). Seven mL of acid washed sand was added. The chamber was filled with 2× ASHA assay buffer, consisting of 100 mM HEPES pH7.0, 200 mM pyruvate, 20 mM MgCl2, 2 mM TPP (Thiamine pyrophosphate) and 100 μM FAD (flavin adenine dinucleotide).
(§14) The Bead Beater cell disruptor was packed in ice and turned on for 10 seconds, followed by cooling for 3 minutes. This cycle was repeated five times. The extract was transferred into a centrifuge tube, and spun in a Beckman SA20 (Beckman, Fullerton, Calif.) rotor for 15 minutes at 17,000 rpms. […]

Synechocystis AHAS = assay: In vitro AHAS assay; format: biochemical, Synechocystis PCC6803; details: 100 nM
Procedure: as §11, §12, §13, §14

[4] = test system: E. coli M1262 expressing the cyanobacterial ahas gene; assay: Growth on minimal media of E. coli M1262 expressing the cyanobacterial ahas gene; format: cell-based
Excerpt: To confirm that these plasmids carry functional AHAS sequences, plasmid DNA from each of the ten rescued colonies was transformed into the E. coli strain M1262. (leuB6, ilv1614, ilvH612, λ^−, relA1, spoT1, ilvB619, ilvG603, ilfG605(am), thi-1) (Genetics Stock Center, Yale University). This strain of E. coli is lacking in AHAS. […] The ahas gene can therefore be used for achieving herbicide tolerance in crops by transformation into the nuclear or plastidic genome.

[5] = wild type cells, suspension culture, seven days

O=C(Nc1cccc2c1C(=O)c1cccc(NC(=O)c3cc(C(=O)Nc4cccc5c4C(=O)c4cccc(NC(=O)c6ccccc6)c4C5=O)c(C(=O)Nc4cccc5c4C(=O)c4cccc(NC(=O)c6ccccc6)c4C5=O)cc3C(=O)Nc3cccc4c3C(=O)c3cccc(NC(=O)c5ccccc5)c3C4=O)c1C2=O)c1ccccc1 [1,2,4,5-benzenetetracarboxamide,N,N′,N″,N′″-tetrakis[5-(benzoylamino)-9,10-dihydro-9,10-dioxo-1-anthracenyl]]
cross-resistance of the resistant mutants [1]: exhibited cross-resistance

O=C(Nc1ccc(F)cc1)c1cccc(Oc2cccc(C(F)(F)F)c2)n1 [4′-fluoro-6-[(alpha,alpha,alpha,-trifluoro-m-toly)oxy]-picolinamide]
concentrations active against Synechocystis PCC6803 ([2]; BG-11 solid medium, paper disc assay): 1 to 2 µM | lethal concentration for resistant mutant selection ([2]; Synechocystis): 1 to 2 µM | growth of wild type Synechocystis ([2]; paper disc assay, 0.5 nmol): significantly inhibited | IC50 ([3]; mutant 5-1/12E): 1 to 2 µM | IC50 ([3]; mutant 5-1/12F): 1 to 2 µM | IC50 ([3]; mutant 5-4/12F): 5 to 10 µM | IC50 ([3]; mutant 7-3/12F): 5 to 10 µM | IC50 ([3]; mutant 7-4/12F): 5 to 10 µM | I50 of growth inhibition (wild type Synechocystis; liquid cultures): lower sub-micromolar range | I50 (wild type Synechocystis; [5]): sub μM range | concentration at which growth was inhibited (wild type Synechocystis; [5]): < 0.25 µM

CC(=O)/C(C(=O)c1ccc(Cl)cc1Cl)=C(/N)SCc1ccccc1 [(2E)-2-[amino(benzylsulfanyl)methylene]-1-(2,4-dichlorophenyl)-1,3-butanedione]
cross-resistance of the resistant mutants [1]: exhibited cross-resistance

N#Cc1cc(Br)c(O)c(Br)c1 [Bromoxynil]
Activity Rating (++ = highest) (Synechocystis PCC 6803): +

CN(C)C(=O)Nc1ccc(Cl)cc1 [CMU]
Activity Rating (++ = highest) (Synechocystis PCC 6803): +

CCOC(=O)Nc1cccc(OC(=O)Nc2ccccc2)c1 [Desmedipham]
Activity Rating (++ = highest) (Synechocystis PCC 6803): ++

CN(C)C(=O)Nc1ccccc1 [Fenuron]
Activity Rating (++ = highest) (Synechocystis PCC 6803): ++

CN(C)C(=O)Nc1ccc(Cl)cc1 [Monuron]
Activity Rating (++ = highest) (Synechocystis PCC 6803): ++

COC(=O)c1ccccc1S(=O)(=O)NC(=O)Nc1nc(C)cc(C)n1 [OUST® sulfometuron methyl, sulfometuron methyl]
inhibition of growth (Synechocystis PCC6803): No inhibition of growth | inhibition of growth (Anabaena PCC7120): No inhibition of growth | inhibition of AHAS enzyme (Anabaena AHAS): No significant inhibition | inhibition of AHAS enzyme (Synechocystis AHAS): No significant inhibition | growth on minimal media in the presence of the herbicide [4]: capable of growing

COC(=O)Nc1cccc(OC(=O)Nc2cccc(C)c2)c1 [Phenmedipham]
Activity Rating (++ = highest) (Synechocystis PCC 6803): ++

CCNc1nc(Cl)nc(NCC)n1 [Simazine]
Activity Rating (++ = highest) (Synechocystis PCC 6803): ++

Cc1cc(OCC=C(Cl)Cl)nc(Oc2ccnc(C(F)(F)F)c2)c1 [pyridine, 2-[(3,3-dichloro-2-propenyl)oxy]-4-methyl-6-[(2-(trifluoromethyl)-4-pyrodinyl]oxy]]
cross-resistance of the resistant mutants [1]: exhibited cross-resistance

From patent publication US7285701B2, “Cyanobacterial nucleic acid fragments encoding proteins useful for controlling plant traits via nuclear or plastome transformation” (BASF Plant Science GmbH, priority 2001, dated 2007)
